# Data from US7632654B2, “Means and methods for detecting endoglycosidase activity” (Academisch Ziekenhuis bij de Universiteit van Amsterdam, priority 2002, dated 2009).
# T1: lysozyme from human milk (Homo sapiens, UniProt P61626)
# T1 construct: lysozyme from human milk; purchased Sigma; host or cells: human milk
# T1 sequence (P61626 19-148): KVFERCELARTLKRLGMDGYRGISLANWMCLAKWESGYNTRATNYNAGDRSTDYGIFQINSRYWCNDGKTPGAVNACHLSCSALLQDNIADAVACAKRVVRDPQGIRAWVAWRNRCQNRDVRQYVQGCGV
# T2: lysozyme from human neutrophils (Homo sapiens, UniProt P61626)
# T2 construct: lysozyme from human neutrophils; purchased Sigma; host or cells: human neutrophils
# T2 sequence (P61626 19-148): T1 sequence (P61626 19-148)
# B1: aiglucerase: enzyme replacement therapy for Gaucher disease (protein, UniProt P04062 40-536, looked up)
# Lysosomal acid …: ARPCIPKSFGYSSVVCVCNATYCDSFDPPTFPALGTFSRYESTRSGRRMELSMGPIQANHTGTGLLLTLQPEQKFQKVKGFGGAMTDAAALNILALSPPAQNLLLKSYFSEEGIGYNIIRVPMASCDFSIRTYTYADTPDDFQLHNFSLPEEDTKLKIPLIHRALQLAQRPVSLLASPWTSPTWLKTNGAVNGKGSLKGQPGDIYHQTWARYFVKFLDAYAEHKLQFWAVTAENEPSAGLLSGYPFQCLGFTPEHQRDFIARDLGPTLANSTHHNVRLLMLDDQRLLLPHWAKVVLTDPEAAKYVHGIAVHWYLDFLAPAKATLGETHRLFPNTMLFASEACVGSKFWEQSVRLGSWDRGMQYSHSIITNLLYHVVGWTDWNLALNPEGGPNWVRNFVDSPIIVDITKDTFYKQPMFYHLGHFSKFIPEGSQRVGLVASQKNDLDAVALMHPDGSAVVVVLNRSSKDVPLTIKDPAVGFLETISPGYSIHTYLWRRQ
# modifications: mannose-terminated glycans
# notes: enzyme replacement therapy for Gaucher disease
# B2: recombinant beta-1B interferon: recombinant beta-1B interferon treatment of an MS patient (protein, UniProt P01574 22-187, looked up, variant C17S)
# Interferon beta: MSYNLLGFLQRSSNFQSQKLLWQLNGRLEYCLKDRMNFDIPEEIKQLQQFQKEDAALTIYEMLQNIFAIFRQDSSSTGWNETIVENLLANVYHQINHLKTVLEEKLEKEDFTRGKLMSSLHLKRYYGRILHYLKAKEYSHCAWTIVRVEILRNFYFINRLTGYLRN
# modifications: lacks N-terminal Met, non-glycosylated
# notes: recombinant beta-1B interferon treatment of an MS patient
# B3: G-CSF: granulocyte colony stimulating factor (protein, UniProt P09919 31-207, looked up)
# Granulocyte …: TPLGPASSLPQSFLLKCLEQVRKIQGDGAALQEKLVSECATYKLCHPEELVLLGHSLGIPWAPLSSCPSQALQLAGCLSQLHSGLFLYQGLLQALEGISPELGPTLDTLQLDVADFATTIWQQMEELGMAPALQPTQGAMPAFASAFQRRAGGVLVASHLQSFLEVSYRVLRHLAQP
# How the values were obtained:
# lysozyme from human milk = biological target: T1, lysozyme from human milk; assay: substrate preference of lysozyme, 4MU release; format: biochemical; conditions: lysozyme from human milk (Sigma)
# From the text: (§1) Substrate preference of lysozyme. The enzymatic activity of commercial lysozyme preparations was 25 measured with 4-MU-chitobioside and 4MU-deoxychitbioside substrates. The release of 4MU was detected fluorimetrically, as described before. Similar to the findings for chitotriosidase (chitinase), the activity measured with the deoxy-subsytrate is far higher: […]
# [1] = biological target: T3, lysozyme from chicken egg (Gallus gallus, UniProt P00698); assay: substrate preference of lysozyme, 4MU release; format: biochemical; conditions: lysozyme from chicken egg (Sigma)
# T3 construct: lysozyme from chicken egg; purchased Sigma; host or cells: chicken egg
# From the text: as §1
# [2] = biological target: T2, lysozyme from human neutrophils; assay: substrate preference of lysozyme, 4MU release; format: biochemical; conditions: lysozyme from human neutrophils (Sigma)
# From the text: as §1
# [3] = test system: bacterial chitinase, 39 and 50 kDa forms of human and mouse chitotriosidase and AMCases, fetal calf serum chitinase; assay: CHIS versus 4-MU-chitobiose as substrate for other chitinases; format: biochemical; conditions: in all cases (not shown)
# Experimental: For this purpose, assays were performed with CHIS and 4-MU-chitobiose as substrate with bacterial chitinase (Sigma), purified recombinant 39 and 50 kDa forms of human and mouse chitotriosidase and AMCases and purified fetal calf serum chitinase.
# 50 kDa chitotriosidase = biological target: T4, 50 kDa chitotriosidase (Homo sapiens, UniProt Q13231); assay: hydrolysis of 4-MU substrates by pure 50 kDa chitotriosidase, fluorimetric 4-MU release; format: biochemical; conditions: 37 C
# T4 construct: made in house
# Experimental: FIG. 3. Substrate concentration dependency of chitriosidase activity with novel artificial substrate as compared to present one. Activity of 50 kDa chitotriosdase towards 4-MU-chitobiose and 4-deoxy-variant hereof (CHIS1). Enzyme was incubated at 37 C with indicated concentrations of substrates. Reactions were stopped after 10 minutes and 4-MU measured fluorometrically.
# FIG. 4. Improved linearity of chitotriosidase assay with time and enzyme concentration. Activity of 50 kDa chitotriosdase towards 4-MU-chitobiose and 4-deoxy-variant hereof (CHIS). Reaction time (FIG. 5a) and concentration of enzyme (FIG. 5b) were varied and enzyme activity was measured with 4MU-chitobiose and 4-deoxy-variant hereof.
# The CHISI compound was tested as substrate. For this purpose, pure 50 kDa chitotriosidase was incubated with this substrate at 37 C in Mclvaine buffer (pH 5.5). For comparison the enzymes were in parallel incubated with 4-MU-chitobiose (Sigma). The reaction was stopped by adding excess of 0.1 M glycine-NaOH @H 10.3) and fluorescence was monitored (excitation at 366 nm, emission at 445 nm).
# Even more importantly, saturating substrate concentrations (100-200 microM) can be used in the case of CHIS (Km of chitotriosidase is 50 microM). This renders a great improvement with regard to reproducibility of the assay and interpretation of results. […]
# plasma chitotriosidase [4] = assay: plasma chitotriosidase in sarcoidosis patients treated with corticosteroids; format: in vivo, human; conditions: sarcoidosis patient, orally 25 mg
# Experimental: Sarcoidosis is treated by administration of corticosteroids. Determination of optimal drug dosage is critical but unfortunately also complicated. It was studied whether plasma chitotriosidase levels change upon treatment. […] However, tapering of the dose to 5 mg per day after 17 weeks was followed by recurrence of disease activity while chitotriosidase activity increment preceded the worsening of symptoms. Another interesting finding concerns a patient that was treated with corticosteroid pulse therapy (1000 mg methyiprednisone for three days every 2 weeks). […] This was accompanied by marked clinical improvement.
# chitotriosidase = biological target: T5, chitotriosidase (Homo sapiens, UniProt Q13231); assay: incubation of pure chitotriosidase with 4-MU-hexosamine and PNP-chitobiose (hydrolysis/transglycosylation); format: biochemical; conditions: substrate alone, 50 microM
# T5 construct: made in house
# Experimental: FIG. 2. […] Activity of 50 kDa recombinant human chitotriosidase towards PNPchitobiose, 4MU-hexosamine and a mixture of both substrates. Panel A: incubation 1. Enzyme was incubated with 50 microM PNPchitobiose and the reaction was stopped at indicated time points by adding excess of 0.2 M glycine-NaOH @H1O.3). Release of the hydrolysis product p-nitrophenol was determined spectrometrically at […]. Panel B: incubation 2. Enzyme was incubated with 50 microM 4MU-hexosamine and the reaction was stopped at indicated time points by adding excess of 0.2 M glycine-NaOH (pHlO.3). Release of the hydrolysis product 4-methyl-umbelliferone was determined fluorometrically (excitation at 366 nm; emission at 445 nm). Panel C: incubation 3. Enzyme was incubated with 50 microM PNPchitobiose and 50 microM 4MU-hexosamine and the reaction was stopped at indicated time points by adding excess of 0.2 M glycine-NaOH (pHlO.3). Release of hydrolysis products was measured spectrometrically and fluoremetrically.
# FIG. 2A. Transglycosylation by chitotriosidase. Explanation for the outcome of the experiment depictured in FIG. 2. Chitotriosidase is able to remove chitobiose-unit from PNP-chitobiose, resulting in release of PNP that is spectrometrically detected. (FIG. 2 panel A). […]
# plasma chitotriosidase [5] = assay: plasma chitotriosidase in Gaucher patients following therapeutic interventions; format: in vivo, human; conditions: first patients in Europe treated, measured with 4MU-chitotriose, FIG. 7
# From the text: Besides its use in the confirmation of the diagnosis of Gaucher disease, the measurement of plasma chitotriosidase activity is extremely valuable in decision making regarding initiation of costly therapeutic intervention and optimizing treatment dosing regimens (Aerts et al, 1997; Young et al., 1997; Cox et al., 2000). […] It can be seen that onset of disease can be accurately monitored by monitoring plasma enzyme level. Initiation of therapy results in reductions of the plasma marker of the pathological Gaucher cells. […] In many countries regular measurement of plasma chitotriosidase is now used to monitor response to therapy and increases in plasma chitotriosidase levels are used as a criterion to initiate treatment. The plasma chitotriosidase now plays an important role in the clinical management of Gaucher patients. The European Working Group on Gaucher Disease has recommended its use.
# FIG. 7. […] Responses in plasma enzyme level in the first patient in Europe treated with enzyme replacement therapy (aiglucerase) and the first patient in Europe treated with substrate deprivation therapy (butyldeoxynojirimycin). Enzyme activities were measured with 4MU-chitotriose as described in Hollak et al., 1994.
# CSF chitotriosidase = CSF chitotriosidase in an MS patient under treatment; format: in vivo, human; conditions: one MS patient
# Experimental: Multiple sclerosis (MS) is a presumed T-cell mediated Thi type autoimmune disease. In the pathophysiology of multiple sclerosis (MS) an important role is envisioned for activated T-lymphocytes and macrophages. It is generally thought that macrophages and resident brain microglia are agents of the demyelization that occurs in MS. Chitotriosidase activity was determined in plasma and cerebral spine fluid (CSF) of MS patients. In CSF of patients, but not in plasma, chitotriosidase activity is clearly elevated in relation to manifestation of MS. In a MS patient receiving recombinant beta-1B interferon treatment a concomitant 10-fold reduction in CSF chitotriosidase was noted by us. These findings indicate that chitotriosidase measurement is useful to assess the presence of activated phagocytes in the brain of MS patients and correction therein following treatment.
# serum chitotriosidase = serum chitotriosidase after G-CSF or GM-CSF in healthy volunteers; format: in vivo, human; conditions: parallel to lactoferrin
# Experimental: Neutrophil Activation. To test the potential of chitotriosidase as a marker for the release of specific granules of neutrophils, we examined samples obtained in earlier studies in which granulocyte colony stimulating factor (G-CSF) or granulocyte-macrophage colony stimulating factor (GM-CSF) were administered to healthy volunteers. In these experiments it was previously shown that degranulation of the specific granules of neutrophils occurs. Neutrophils release their specific granule content after 2 hours after G-CSF injection, as detectable by the appearance of lactoferrin in the circulation. […] The increase in lactoferrin and chitotriosidase is not due to an increase in neutrophil cell number, because these levels peak later in time, after about 12 hours. A second peak in lactoferrin and chitotriosidase levels is seen after […] after G-CSF injection.
# T4 sequence (Q13231 22-466): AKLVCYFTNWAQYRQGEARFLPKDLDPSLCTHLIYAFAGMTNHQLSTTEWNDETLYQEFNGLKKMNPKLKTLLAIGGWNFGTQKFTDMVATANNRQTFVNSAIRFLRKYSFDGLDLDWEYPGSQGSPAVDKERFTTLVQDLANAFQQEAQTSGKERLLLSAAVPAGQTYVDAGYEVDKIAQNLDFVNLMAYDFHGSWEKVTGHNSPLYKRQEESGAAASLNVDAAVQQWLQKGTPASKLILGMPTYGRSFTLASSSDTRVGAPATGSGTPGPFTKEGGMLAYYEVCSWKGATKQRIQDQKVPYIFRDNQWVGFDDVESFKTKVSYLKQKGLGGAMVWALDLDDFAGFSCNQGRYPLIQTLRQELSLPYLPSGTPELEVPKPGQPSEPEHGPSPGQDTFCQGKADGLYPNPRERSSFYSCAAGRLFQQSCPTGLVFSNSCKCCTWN
# T5 sequence (Q13231 22-466): as above
# T3 sequence (P00698 19-147): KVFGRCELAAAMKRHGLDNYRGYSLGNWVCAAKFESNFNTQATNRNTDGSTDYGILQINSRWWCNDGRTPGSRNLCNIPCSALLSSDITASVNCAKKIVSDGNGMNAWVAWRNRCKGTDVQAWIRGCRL
molecule,measurement,setting,value
"CC(=O)N[C@H]1[C@H](Oc2ccc3c(C)cc(=O)oc3c2)O[C@H](CO)[C@@H](O[C@@H]2O[C@H](CO)C[C@H](O)[C@H]2NC(C)=O)[C@@H]1O [CHIS1, 4-methylumbellyferyl 2-acetamido-2-deoxy-4-0-(2-acetamido-2,4-dideoxy-beta-D-glucopyranosyl)-beta-Dglucopyranoside]",ratio 4MU-deoxychitobioside/4Mu-chitobioside,lysozyme from human milk,2.5-3.0
same,ratio 4MU-deoxychitobioside/4Mu-chitobioside,[1],2.1-2.4
same,ratio 4MU-deoxychitobioside/4Mu-chitobioside,[2],3.0-3.2
same,substrate behaviour with other chitinases,[3],far more sensitive and linear at saturating substrate concentration
same,Km,50 kDa chitotriosidase; Mclvaine buffer pH 5.5,50 µM
same,substrate inhibition,"50 kDa chitotriosidase; pure 50 kDa chitotriosidase, pH 5.5, FIG. 3",does not show substrate inhibition
C[C@]12C=CC(=O)C=C1CC[C@@H]1[C@@H]2C(=O)C[C@@]2(C)[C@H]1CC[C@]2(O)C(=O)CO [prednisone],chitotriosidase activity upon treatment,plasma chitotriosidase [4],markedly decreased
CC(=O)N[C@H]1[C@H](Oc2ccc([N+](=O)[O-])cc2)O[C@H](CO)[C@@H](O[C@@H]2O[C@H](CO)[C@@H](O)[C@H](O)[C@H]2NC(C)=O)[C@@H]1O [PNP-chitobiose],substrate of chitotriosidase (release of 4-MU or PNP),chitotriosidase,is a substrate
"CC(=O)N[C@H]1[C@H](Oc2ccc3c(C)cc(=O)oc3c2)O[C@H](CO)[C@@H](O[C@@H]2O[C@H](CO)[C@@H](O)[C@H](O)[C@H]2NC(C)=O)[C@@H]1O [4-MU-chitobiose, reference compound]",substrate behaviour with other chitinases,[3],showed apparent substrate inhibition at sub saturating concentrations
"CC(=O)N[C@H]1C(Oc2ccc3c(C)cc(=O)oc3c2)O[C@H](CO)[C@@H](O)[C@@H]1O (some centres unmarked) [4-MU-hexosamine, 4-methylumbelliferyl-N-acetyiglucosamine]",substrate of chitotriosidase (release of 4-MU or PNP),chitotriosidase,no substrate
"CCCCN1C[C@H](O)[C@@H](O)[C@H](O)[C@H]1CO [butyldeoxynojirimycin, reference compound]",response in plasma chitotriosidase,plasma chitotriosidase [5],Corrections in plasma chitotriosidase
B1,response in plasma chitotriosidase,plasma chitotriosidase [5],Corrections in plasma chitotriosidase
B2,reduction in CSF chitotriosidase,CSF chitotriosidase,10 fold
B3,serum chitotriosidase levels,serum chitotriosidase,Parallel increases
